Reference: patent US6723755B2, “Method of treating rosacea” (priority 2002, dated 2004)

Tests used:
rosacea = test: topical treatment of rosacea (related materials tested); assay type: in vivo, humans; settings: topical application
skin = skin irritation on topical application; assay type: in vivo

Row | Structure (SMILES) | usefulness in the present invention (treatment of rosacea) (rosacea) | irritation (reddening) of the skin to which it is applied (skin)
1 | ClC1CCCCC1 [cyclohexyl chloride] | not to be useful | –
2 | CC1(O)CCCCC1 [1-methylcyclohexanol] | not to be useful | –
3 | OCCCCC1CCCCC1 [4-cyclohexyl-1-butanol] | not to be useful | –
4 | CC1CCC(C(C)C)C(O)C1 (stereo not drawn) [menthol] | not to be useful | can irritate (and thereby redden) the skin
5 | C1=CCCCC1 [cyclohexene] | not to be useful | –
6 | O=C(O)C1CCCCC1 [cyclohexyl carboxylic acid] | not to be useful | –
7 | CC1(C)[C@H]2C[C@H]1[C@@](C)(O)[C@@H](O)C2 [(1R,2R,3S,5S-(−))-pinanediol] | do not work | –
8 | CC(=O)OC1CCCCC1 [cyclohexyl acetate] | not to be useful | –
9 | OC1CCCC1O (stereo not drawn) [1,2-cyclopentanediol] | do not work | –
10 | OCC1(CO)CC2C=CC1C2 (stereo not drawn) [5-norborene-2,2-dimethanol] | do not work | –
11 | C1CCCCC1 [cyclohexane] | not to be useful | –
